# In paper PMC8989868, “Structural mechanism of TRPM7 channel regulation by intracellular magnesium” (Cellular and Molecular Life Sciences: CMLS, 2022):
# Biological target: T1, mouse TRPM7 (Mus musculus, UniProt Q923J1)
# T1 construct: full-length channel-kinase, untagged, in bicistronic pIRES2-EGFP, transiently expressed in HEK293T cells; homotetramer
# Assay: whole-cell patch clamp, current at +[…] mV
# Type: cell-based
# Conditions: external NS8593, inhibitor; Mg2+-free intracellular solution; pH 7.2
# T1 sequence (Q923J1 whole entry): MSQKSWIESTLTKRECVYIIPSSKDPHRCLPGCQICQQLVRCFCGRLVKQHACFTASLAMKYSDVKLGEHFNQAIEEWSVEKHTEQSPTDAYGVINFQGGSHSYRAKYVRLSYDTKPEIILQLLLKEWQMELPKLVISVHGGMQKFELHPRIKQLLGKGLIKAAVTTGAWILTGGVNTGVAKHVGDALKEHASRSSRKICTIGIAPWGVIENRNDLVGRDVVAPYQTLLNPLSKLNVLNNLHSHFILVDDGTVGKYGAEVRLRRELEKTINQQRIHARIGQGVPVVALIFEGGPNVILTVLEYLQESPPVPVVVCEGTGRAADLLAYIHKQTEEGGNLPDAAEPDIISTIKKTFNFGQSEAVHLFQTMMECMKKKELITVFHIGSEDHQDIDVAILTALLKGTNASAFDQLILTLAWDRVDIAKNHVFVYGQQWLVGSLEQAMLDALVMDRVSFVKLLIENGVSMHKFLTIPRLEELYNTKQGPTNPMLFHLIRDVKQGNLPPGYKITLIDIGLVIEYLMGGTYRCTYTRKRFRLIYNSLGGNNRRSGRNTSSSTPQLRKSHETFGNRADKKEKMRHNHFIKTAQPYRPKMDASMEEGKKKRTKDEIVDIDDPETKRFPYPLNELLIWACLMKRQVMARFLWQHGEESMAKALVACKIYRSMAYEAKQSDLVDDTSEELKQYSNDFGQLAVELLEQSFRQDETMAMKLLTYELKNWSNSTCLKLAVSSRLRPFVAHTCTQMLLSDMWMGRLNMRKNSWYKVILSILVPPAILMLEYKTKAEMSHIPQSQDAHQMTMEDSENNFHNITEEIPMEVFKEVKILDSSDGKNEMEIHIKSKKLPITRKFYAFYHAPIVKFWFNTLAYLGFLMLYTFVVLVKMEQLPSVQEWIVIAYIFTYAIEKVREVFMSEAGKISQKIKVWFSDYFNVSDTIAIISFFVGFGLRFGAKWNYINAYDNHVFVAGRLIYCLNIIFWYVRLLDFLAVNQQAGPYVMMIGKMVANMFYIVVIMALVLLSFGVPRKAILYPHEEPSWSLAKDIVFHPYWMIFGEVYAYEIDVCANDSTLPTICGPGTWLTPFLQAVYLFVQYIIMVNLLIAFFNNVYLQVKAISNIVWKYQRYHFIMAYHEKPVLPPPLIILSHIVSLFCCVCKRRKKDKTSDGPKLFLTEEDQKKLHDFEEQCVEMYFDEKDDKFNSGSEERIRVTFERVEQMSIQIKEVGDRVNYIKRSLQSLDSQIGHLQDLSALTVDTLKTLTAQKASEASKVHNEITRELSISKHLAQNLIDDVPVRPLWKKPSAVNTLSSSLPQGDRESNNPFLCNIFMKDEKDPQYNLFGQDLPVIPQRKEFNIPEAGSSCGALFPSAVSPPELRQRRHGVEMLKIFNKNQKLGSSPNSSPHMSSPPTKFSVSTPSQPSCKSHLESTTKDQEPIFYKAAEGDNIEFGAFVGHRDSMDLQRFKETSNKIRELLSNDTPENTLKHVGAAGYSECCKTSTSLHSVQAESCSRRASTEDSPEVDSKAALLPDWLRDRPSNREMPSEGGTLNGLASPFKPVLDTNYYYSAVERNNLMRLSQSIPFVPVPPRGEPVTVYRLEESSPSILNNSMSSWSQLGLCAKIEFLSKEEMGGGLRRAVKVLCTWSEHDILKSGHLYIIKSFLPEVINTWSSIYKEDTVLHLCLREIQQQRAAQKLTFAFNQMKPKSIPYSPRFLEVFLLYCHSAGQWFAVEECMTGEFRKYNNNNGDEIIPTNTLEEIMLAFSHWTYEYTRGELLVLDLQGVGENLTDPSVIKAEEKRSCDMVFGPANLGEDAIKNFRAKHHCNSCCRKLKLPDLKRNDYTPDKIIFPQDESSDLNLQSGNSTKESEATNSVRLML
structure (smiles),measurement,value
c1ccc2c(c1)CCC[C@H]2Nc1nc2ccccc2[nH]1 [NS8593],current inhibition at 10 μM,NS8593 caused a rapid inhibition of WT and N1097Q currents
